Patent publication EP1832576A1, “4-Biarylyl-1-phenolyzetidin-2-ones” (Microbia Inc., priority 2003, dated 2005)

What follows are molecules tested on cholesterol absorption from the intestine (assay: In Vivo Assay of Hypolipidemic Agents using the Rat Cholesterol Absorption Model). Conditions: po, Table 1, footnote 1, perorally, 10 mg/kg, 3H levels in serum three hours after 3H-cholesterol.
Design: species or system Female Sprague-Dawley rats
Outline: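 Fasted female Sprague-Dawley rats (150–250 g, 4–6/group) received compound orally in olive oil or vehicle. Thirty minutes later they were given 3–5 µCi ^3H-cholesterol orally in olive oil, and serum ^3H was counted at 3 h. Percent inhibition versus vehicle control is at a fixed dose; ED50 is the dose giving half-maximal effect on serum ^3H.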
In the case of `COc1ccc(-c2ccc([C@@H]3[C@@H](CC[C@H](O)c4ccc(F)cc4)C(=O)N3c3ccc(F)cc3)cc2)cc1` [Example 5, (3R,4S)-1-(4-fluorophenyl)-3-[(3S)-3-(4-fluorophenyl)-3-hydroxypropyl]-4-(4'-methoxybiphenyl-4-yl)azetidin-2-one], the inhibition at 10 mg/kg is reported as 26%.

Same assay, conditions: po, Table 1, perorally, 1 mg/kg, 3H levels in serum three hours after 3H-cholesterol, versus vehicle only control
`Cc1cccc(-c2ccc([C@@H]3[C@@H](CC[C@H](O)c4ccc(F)cc4)C(=O)N3c3ccc(F)cc3)cc2)c1` [Example 93, (3R,4S)-1-(4-fluorophenyl)-3-[(3S)-3-(4-fluorophenyl)-3-hydroxypropyl]-4-(3'-methylbiphenyl-4-yl)azetidin-2-one] was tested, and the inhibition at 1 mg/kg was 28%. In the case of `O=C1[C@H](CC[C@H](O)c2ccc(F)cc2)[C@@H](c2ccc(-c3ccc4ccccc4c3)cc2)N1c1ccc(F)cc1` [Example 91, (3R,4S)-1-(4-fluorophenyl)-3-[(3S)-3-(4-fluorophenyl)-3-hydroxypropyl]-4-[4-(2-naphthyl)phenyl]azetidin-2-one], the inhibition at 1 mg/kg is reported as 56%. In the case of `O=C1[C@H](CC[C@H](O)c2ccc(F)cc2)[C@@H](c2ccc(-c3ccc4c(c3)OCCO4)cc2)N1c1ccc(F)cc1` [Example 87, (3R,4S)-4-[4-(2,3-dihydro-1,4-benzodioxin-6-yl)phenyl]-1-(4-fluorophenyl)-3-[(3S)-3-(4-fluorophenyl)-3-hydroxypropyl]azetidin-2-one], the inhibition at 1 mg/kg is reported as 59%. With `O=C1[C@H](CC[C@H](O)c2ccc(F)cc2)[C@@H](c2ccc(-c3cc(O)cc(O)c3)cc2)N1c1ccc(F)cc1` [Example 114, (3R,4S)-4-(3',5'-dihydroxybiphenyl-4-yl)-1-(4-fluorophenyl)-3-[(3S)-3-(4-fluorophenyl)-3-hydroxypropyl]azetidin-2-one] the inhibition at 1 mg/kg was 72%. Work on `O=Cc1ccc(-c2ccc([C@@H]3[C@@H](CC[C@H](O)c4ccc(F)cc4)C(=O)N3c3ccc(F)cc3)cc2)cc1` [Example 99, 4'-{(2S,3R)-1-(4-fluorophenyl)-3-[(3S)-3-(4-fluorophenyl)-3-hydroxypropyl]-4-oxoazetidin-2-yl}-biphenyl-4-carbaldehyde] yielded an inhibition at 1 mg/kg of 38%. `O=C(O)c1ccc(-c2ccc([C@@H]3[C@@H](CC[C@H](O)c4ccc(F)cc4)C(=O)N3c3ccc(F)cc3)cc2)cc1` [Example 22, 4'-{(2S,3R)-1-(4-fluorophenyl)3-[(3S)-3-(4-fluorophenyl)-3-hydroxypropyl]-4-oxoazetidin-2-yl]biphenyl-4-carboxylic acid] was tested, and the inhibition at 1 mg/kg was 52%. Molecule `O=C1[C@H](CC[C@H](O)c2ccc(F)cc2)[C@@H](c2ccc(-c3cccc(S(=O)(=O)O)c3)cc2)N1c1ccc(F)cc1` [Example 118, 4'-{(2S,3R)-1-(4-fluorophenyl)-3-[(3S)-3-(4-fluorophenyl)-3-hydroxypropyl]-4-oxoazetidin-2-yl}biphenyl-3-sulfonic acid] has an inhibition at 1 mg/kg of 61%. With `COC(=O)c1ccc(-c2ccc([C@@H]3[C@@H](CC[C@H](O)c4ccc(F)cc4)C(=O)N3c3ccc(F)cc3)cc2)cc1` [Example 89, methyl 4'-{(2S,3R)-1-(4-fluorophenyl)-3-[(3S)-3-(4-fluorophenyl)-3-hydroxypropyl]-4-oxoazetidin-2-yl} biphenyl-4-carboxylate] the inhibition at 1 mg/kg was 45%. For `O=C1[C@H](CC[C@H](O)c2ccc(F)cc2)[C@@H](c2ccc(-c3cccc(C[C@@H]4O[C@H](CO)[C@@H](O)[C@H](O)[C@H]4O)c3)cc2)N1c1ccc(F)cc1` [Example 117, 2,6-anhydro-1-deoxy-1-(4'-{(2S,3R)-1-(4-fluorophenyl)-3-[(3S)-3-(4-fluorophenyl)-3-hydroxypropyl]-4-oxoazetidin-2-yl}biphenyl-3-yl)-D-glycero-D-gulo-heptitol], the inhibition at 1 mg/kg was 26%.

Same assay, conditions: po, Table 2, footnote 6, perorally, 0.3 mg/kg
For `O=C1[C@H](CC[C@H](O)c2ccc(F)cc2)[C@@H](c2ccc(-c3ccc([C@@H]4O[C@H](CO)[C@@H](O)[C@H](O)[C@H]4O)cc3)cc2O)N1c1ccccc1` [Example 66, (1S)-1,5-Anhydro-1-(4'-{(2S,3R)-3-[(3S)-3-(4-fluorophenyl)-3-hydroxypropyl]-4-oxo-1-phenylazetidin-2-yl}-3'-hydroxybiphenyl-4-yl)-D-glucitol], the inhibition at 0.3 mg/kg was 71%.

Same assay, conditions: po, Table 2, perorally, 1 mg/kg, 3H levels in serum three hours after 3H-cholesterol, versus vehicle only control
`O=C1[C@H](CC[C@H](O)c2ccc(F)cc2)[C@@H](c2ccc(-c3ccc(O)cc3)s2)N1c1ccccc1` [Example 51, (3R,4S)-3-[(3S)-3-(4-Fluorophenyl)-3-hydroxypropyl]-4-[5-(4-hydroxyphenyl)-2-thienyl]-1-phenylazetidin-2-one] gave an inhibition at 1 mg/kg of 39%. In the case of `O=C1[C@H](CC[C@H](O)c2ccc(F)cc2)[C@@H](c2ccc(-c3cccc([C@H](O)[C@H]4OC(O)[C@H](O)[C@@H](O)[C@@H]4O)c3)cc2O)N1c1ccccc1` (stereo partly drawn) [Example 73, (6S)-6-C-(4'-{(2S,3R)-3-[(3S)-3-(4-Fluorophenyl)-3-hydroxypropyl]-4-oxo-1-phenylazetidin-2-yl}-3'-hydroxybiphenyl-3-yl)-D-glucopyranose], the inhibition at 1 mg/kg is reported as 59%. With `O=C1[C@H](CC[C@H](O)c2ccc(F)cc2)[C@@H](c2ccc(-c3cccc([C@H](O)[C@@H](O)[C@@H](O)[C@H](O)[C@@H](O)CO)c3)cc2O)N1c1ccccc1` [Example 75, (6S)-6-C-(4'-{(2S,3R)-3-[(3S)-3-(4-Fluorophenyl)-3-hydroxypropyl]-4-oxo-1-phenylazetidin-2-yl}-3'-hydroxybiphenyl-3-yl)-D-glucitol] the inhibition at 1 mg/kg was 68%. Work on `O=C1[C@H](CC[C@H](O)c2ccc(F)cc2)[C@@H](c2ccc(-c3cccc(O)c3)cc2O)N1c1ccc(F)cc1` [Example 121, (3R,4S)-4-(3,3'-dihydroxybiphenyl-4-yl)-1-(4-fluorophenyl)-3-[(3S)-3-(4-fluorophenyl)-3-hydroxypropyl]azetidin-2-one] yielded an inhibition at 1 mg/kg of 72%.
